# Measurements taken from article PMC7949102 (The Journal of Biological Chemistry, 2021).
# T1: DdGlud2 (Dictyostelium discoideum, UniProt Q54VI3)
# T1 construct: gene glud2; full-length, His6-SUMO tag cleaved by ULP, E. coli BL21 Rosetta; elutes at 212 kDa
# T1 sequence (Q54VI3 1-1042): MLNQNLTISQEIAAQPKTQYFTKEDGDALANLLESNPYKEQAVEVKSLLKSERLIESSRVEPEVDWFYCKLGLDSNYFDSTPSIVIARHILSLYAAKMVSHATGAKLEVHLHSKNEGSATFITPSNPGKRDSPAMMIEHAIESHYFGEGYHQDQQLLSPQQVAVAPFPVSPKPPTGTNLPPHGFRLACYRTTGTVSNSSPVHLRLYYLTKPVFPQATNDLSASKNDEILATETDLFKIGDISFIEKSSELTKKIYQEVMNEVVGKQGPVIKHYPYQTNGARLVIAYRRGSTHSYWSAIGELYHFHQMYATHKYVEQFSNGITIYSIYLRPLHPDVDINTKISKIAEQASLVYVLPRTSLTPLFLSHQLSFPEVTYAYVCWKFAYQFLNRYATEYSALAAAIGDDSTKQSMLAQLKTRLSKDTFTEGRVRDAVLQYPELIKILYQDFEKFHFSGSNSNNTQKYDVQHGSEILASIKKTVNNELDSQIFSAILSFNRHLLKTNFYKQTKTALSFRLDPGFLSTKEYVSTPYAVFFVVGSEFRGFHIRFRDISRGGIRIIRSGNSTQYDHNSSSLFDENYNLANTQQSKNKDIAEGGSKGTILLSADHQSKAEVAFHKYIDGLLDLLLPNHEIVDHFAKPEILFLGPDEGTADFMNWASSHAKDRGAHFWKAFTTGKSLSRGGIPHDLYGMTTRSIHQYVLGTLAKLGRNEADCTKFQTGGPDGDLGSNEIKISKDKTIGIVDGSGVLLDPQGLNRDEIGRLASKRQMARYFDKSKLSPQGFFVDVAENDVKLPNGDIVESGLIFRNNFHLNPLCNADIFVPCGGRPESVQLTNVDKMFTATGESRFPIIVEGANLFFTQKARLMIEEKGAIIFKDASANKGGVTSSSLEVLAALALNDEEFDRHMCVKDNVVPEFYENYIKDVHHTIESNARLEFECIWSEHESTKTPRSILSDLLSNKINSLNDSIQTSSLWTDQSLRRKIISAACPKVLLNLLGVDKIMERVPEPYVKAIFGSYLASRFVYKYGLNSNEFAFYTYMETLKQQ
# B1: DdGlud2 (Dictyostelium discoideum) (protein)
# chain: MLNQNLTISQEIAAQPKTQYFTKEDGDALANLLESNPYKEQAVEVKSLLKSERLIESSRVEPEVDWFYCKLGLDSNYFDSTPSIVIARHILSLYAAKMVSHATGAKLEVHLHSKNEGSATFITPSNPGKRDSPAMMIEHAIESHYFGEGYHQDQQLLSPQQVAVAPFPVSPKPPTGTNLPPHGFRLACYRTTGTVSNSSPVHLRLYYLTKPVFPQATNDLSASKNDEILATETDLFKIGDISFIEKSSELTKKIYQEVMNEVVGKQGPVIKHYPYQTNGARLVIAYRRGSTHSYWSAIGELYHFHQMYATHKYVEQFSNGITIYSIYLRPLHPDVDINTKISKIAEQASLVYVLPRTSLTPLFLSHQLSFPEVTYAYVCWKFAYQFLNRYATEYSALAAAIGDDSTKQSMLAQLKTRLSKDTFTEGRVRDAVLQYPELIKILYQDFEKFHFSGSNSNNTQKYDVQHGSEILASIKKTVNNELDSQIFSAILSFNRHLLKTNFYKQTKTALSFRLDPGFLSTKEYVSTPYAVFFVVGSEFRGFHIRFRDISRGGIRIIRSGNSTQYDHNSSSLFDENYNLANTQQSKNKDIAEGGSKGTILLSADHQSKAEVAFHKYIDGLLDLLLPNHEIVDHFAKPEILFLGPDEGTADFMNWASSHAKDRGAHFWKAFTTGKSLSRGGIPHDLYGMTTRSIHQYVLGTLAKLGRNEADCTKFQTGGPDGDLGSNEIKISKDKTIGIVDGSGVLLDPQGLNRDEIGRLASKRQMARYFDKSKLSPQGFFVDVAENDVKLPNGDIVESGLIFRNNFHLNPLCNADIFVPCGGRPESVQLTNVDKMFTATGESRFPIIVEGANLFFTQKARLMIEEKGAIIFKDASANKGGVTSSSLEVLAALALNDEEFDRHMCVKDNVVPEFYENYIKDVHHTIESNARLEFECIWSEHESTKTPRSILSDLLSNKINSLNDSIQTSSLWTDQSLRRKIISAACPKVLLNLLGVDKIMERVPEPYVKAIFGSYLASRFVYKYGLNSNEFAFYTYMETLKQQ
# B2: Dictyostelium discoideum Glud2 (NAD+-dependent glutamate dehydrogenase of the 115-kDa class) (enzyme, UniProt Q54VI3 1-1042, looked up)
# chain: MLNQNLTISQEIAAQPKTQYFTKEDGDALANLLESNPYKEQAVEVKSLLKSERLIESSRVEPEVDWFYCKLGLDSNYFDSTPSIVIARHILSLYAAKMVSHATGAKLEVHLHSKNEGSATFITPSNPGKRDSPAMMIEHAIESHYFGEGYHQDQQLLSPQQVAVAPFPVSPKPPTGTNLPPHGFRLACYRTTGTVSNSSPVHLRLYYLTKPVFPQATNDLSASKNDEILATETDLFKIGDISFIEKSSELTKKIYQEVMNEVVGKQGPVIKHYPYQTNGARLVIAYRRGSTHSYWSAIGELYHFHQMYATHKYVEQFSNGITIYSIYLRPLHPDVDINTKISKIAEQASLVYVLPRTSLTPLFLSHQLSFPEVTYAYVCWKFAYQFLNRYATEYSALAAAIGDDSTKQSMLAQLKTRLSKDTFTEGRVRDAVLQYPELIKILYQDFEKFHFSGSNSNNTQKYDVQHGSEILASIKKTVNNELDSQIFSAILSFNRHLLKTNFYKQTKTALSFRLDPGFLSTKEYVSTPYAVFFVVGSEFRGFHIRFRDISRGGIRIIRSGNSTQYDHNSSSLFDENYNLANTQQSKNKDIAEGGSKGTILLSADHQSKAEVAFHKYIDGLLDLLLPNHEIVDHFAKPEILFLGPDEGTADFMNWASSHAKDRGAHFWKAFTTGKSLSRGGIPHDLYGMTTRSIHQYVLGTLAKLGRNEADCTKFQTGGPDGDLGSNEIKISKDKTIGIVDGSGVLLDPQGLNRDEIGRLASKRQMARYFDKSKLSPQGFFVDVAENDVKLPNGDIVESGLIFRNNFHLNPLCNADIFVPCGGRPESVQLTNVDKMFTATGESRFPIIVEGANLFFTQKARLMIEEKGAIIFKDASANKGGVTSSSLEVLAALALNDEEFDRHMCVKDNVVPEFYENYIKDVHHTIESNARLEFECIWSEHESTKTPRSILSDLLSNKINSLNDSIQTSSLWTDQSLRRKIISAACPKVLLNLLGVDKIMERVPEPYVKAIFGSYLASRFVYKYGLNSNEFAFYTYMETLKQQ
# notes: also called DdGlud2; Dictyostelium Glud2; not shown: 6X-His, N-terminal, cleaved; SUMO (yeast SMT3), N-terminal, cleaved
# Key:
# [1] = target: T1, DdGlud2; experiment: NADH formation at […] nm; type: biochemical; settings: activator; 1 mM GTP, 10 mM Glu, 1 mM NAD+; pH 8.0, 23 °C
# [2] = target: T2, Ltuc1293 (Legionella tucsonensis, UniProt A0A0W0ZWS2); type: biochemical
# T2 construct: gene Ltuc_1293
# [3] = target: T3, Llo2453 (Legionella longbeachae, UniProt D3HKA9); type: biochemical
# T3 construct: gene LLO_2453
# [4] = target: Lart1 (Legionella pneumophila, UniProt Q5ZZ30); settings: 250 μM etheno-NAD+, 0-8 mM nicotinamide, 0.5 mg/ml DdGlud2; pH 7.5, 100 mM NaCl, room temperature
# [5] = substrate: N[C@@H](CCC(=O)O)C(=O)O; experiment: purified protein; settings: 5 mM NAD+, 100 mM Tris-HCl pH 8.0, 0.1 mg/ml BSA, 1 mM DTT, 23 °C, oxidative deamination
# [6] = target: the molecule itself; experiment: SEC
# T2 sequence (A0A0W0ZWS2 1-330): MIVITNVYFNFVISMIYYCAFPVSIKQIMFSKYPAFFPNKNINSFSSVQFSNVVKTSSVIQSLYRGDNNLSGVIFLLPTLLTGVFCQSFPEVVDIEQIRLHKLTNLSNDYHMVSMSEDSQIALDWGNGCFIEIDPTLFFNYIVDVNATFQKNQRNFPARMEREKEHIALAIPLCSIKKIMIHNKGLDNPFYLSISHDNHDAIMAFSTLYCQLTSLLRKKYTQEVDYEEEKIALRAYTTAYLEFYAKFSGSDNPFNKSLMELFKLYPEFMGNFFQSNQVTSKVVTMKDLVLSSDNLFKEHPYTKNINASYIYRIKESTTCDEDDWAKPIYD
# Sequence of Lart1 (Q5ZZ30 whole entry, looked up): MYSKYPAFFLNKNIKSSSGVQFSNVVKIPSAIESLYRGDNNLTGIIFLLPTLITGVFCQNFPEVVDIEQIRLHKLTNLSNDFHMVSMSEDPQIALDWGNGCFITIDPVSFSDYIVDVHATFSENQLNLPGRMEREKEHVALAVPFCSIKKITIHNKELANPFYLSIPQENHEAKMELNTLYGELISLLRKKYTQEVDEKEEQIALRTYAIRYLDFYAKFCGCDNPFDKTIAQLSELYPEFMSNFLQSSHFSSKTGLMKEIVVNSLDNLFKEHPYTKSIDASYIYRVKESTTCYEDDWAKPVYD
# T3 sequence (D3HKA9 1-303): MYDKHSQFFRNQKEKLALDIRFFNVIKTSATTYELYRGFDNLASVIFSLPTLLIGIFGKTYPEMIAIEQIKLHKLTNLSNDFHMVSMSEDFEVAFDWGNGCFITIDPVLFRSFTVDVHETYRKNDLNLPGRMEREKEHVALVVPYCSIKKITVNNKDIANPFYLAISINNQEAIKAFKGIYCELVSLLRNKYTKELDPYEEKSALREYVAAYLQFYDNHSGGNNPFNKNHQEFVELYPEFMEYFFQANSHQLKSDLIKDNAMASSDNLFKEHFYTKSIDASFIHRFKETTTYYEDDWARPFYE
molecule,measurement,setting,value
Nc1nc2c(ncn2[C@@H]2O[C@H](COP(=O)(O)OP(=O)(O)OP(=O)(O)O)[C@@H](O)[C@H]2O)c(=O)[nH]1 [GTP],fold stimulation at 1 mM,[1],2.5 fold
NC(=O)c1ccc[n+]([C@@H]2O[C@H](COP(=O)(O)OP(=O)(O)OC[C@H]3O[C@@H](n4cnc5c4ncn4ccnc54)[C@H](O)[C@@H]3O)[C@@H](O)[C@H]2O)c1 [etheno-NAD+],"ADP-ribosylation of DdGlud2, anti-ethenoadenosine immunoblot",[2],ADP-ribosylated DdGlud2 in assays using both etheno-NAD+ and biotin-NAD+ as substrates
same,"ADP-ribosylation of DdGlud2, anti-ethenoadenosine immunoblot",[3],ADP-ribosylated DdGlud2 in assays using both etheno-NAD+ and biotin-NAD+ as substrates
NC(=O)c1cccnc1 [nicotinamide],inhibition,[4],Lart1 ADP ribosylation was inhibited by free nicotinamide in ≥ twofold excess of NAD+
B1,Km,[5],"18.53 (95% CI 10.72, 32.15) mM"
B2,stoichiometry N,[6],2
